Measured values as given in patent US9464058B2 (Hoffmann-La Roche Inc., priority 2012, dated 2016).

Columns and labels:
[1] = tested on: rat model of chronic kidney disease; conditions: rat CKD model, cited from earlier work; for renal effects (albuminuria, azotemia, renovascular hypertrophy, glomerular injury, PAI-1 and osteopontin mRNA, tubulointerstitial fibrosis): angiotensin II and high salt
[2] = tested on: patients with primary aldosteronism; conditions: oral; cited from earlier work
human CYP11B2 = molecular target: T1, human CYP11B2 (Homo sapiens, UniProt P19099); experiment: G-402 cellular enzyme assay, human CYP11B2 (aldosterone release, HTRF); format: cell-based; conditions: G-402 cells expressing human CYP11B2; 1 μM Deoxycorticosterone; 16 h
T1 construct: expressed in transfected cells
T1 sequence (P19099 25-503): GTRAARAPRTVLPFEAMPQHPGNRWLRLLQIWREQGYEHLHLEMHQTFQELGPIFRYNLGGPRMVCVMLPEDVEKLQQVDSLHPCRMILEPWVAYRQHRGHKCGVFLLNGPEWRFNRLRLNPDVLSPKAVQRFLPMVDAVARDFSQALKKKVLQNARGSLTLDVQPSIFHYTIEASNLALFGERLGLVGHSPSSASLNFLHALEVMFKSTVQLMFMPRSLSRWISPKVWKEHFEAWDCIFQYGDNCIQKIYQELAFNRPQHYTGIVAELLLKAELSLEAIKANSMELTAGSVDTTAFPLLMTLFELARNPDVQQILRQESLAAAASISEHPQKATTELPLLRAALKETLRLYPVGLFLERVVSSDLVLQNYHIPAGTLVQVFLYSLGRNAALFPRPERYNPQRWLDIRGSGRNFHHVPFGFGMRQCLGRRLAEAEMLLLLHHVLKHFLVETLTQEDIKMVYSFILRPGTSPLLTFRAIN
In short: (§1)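 G-402 cells stably expressing human CYP11B2 or CYP11B1, incubated 16 h with compound in DMEM/F12 with 2.5% charcoal-treated FCS plus 1 μM deoxycorticosterone (CYP11B2) or 1 μM deoxycortisol (CYP11B1). Aldosterone or cortisol in supernatant measured by HTRF; EC50 from 4-parameter MMF fit.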

human CYP11B1 = molecular target: T2, human CYP11B1 (Homo sapiens, UniProt P15538); experiment: G-402 cellular enzyme assay, human CYP11B1 (cortisol release, HTRF); format: cell-based; conditions: G-402 cells expressing human CYP11B1; 1 μM Deoxycortisol; 16 h
T2 construct: expressed in transfected cells
T2 sequence (P15538 25-503): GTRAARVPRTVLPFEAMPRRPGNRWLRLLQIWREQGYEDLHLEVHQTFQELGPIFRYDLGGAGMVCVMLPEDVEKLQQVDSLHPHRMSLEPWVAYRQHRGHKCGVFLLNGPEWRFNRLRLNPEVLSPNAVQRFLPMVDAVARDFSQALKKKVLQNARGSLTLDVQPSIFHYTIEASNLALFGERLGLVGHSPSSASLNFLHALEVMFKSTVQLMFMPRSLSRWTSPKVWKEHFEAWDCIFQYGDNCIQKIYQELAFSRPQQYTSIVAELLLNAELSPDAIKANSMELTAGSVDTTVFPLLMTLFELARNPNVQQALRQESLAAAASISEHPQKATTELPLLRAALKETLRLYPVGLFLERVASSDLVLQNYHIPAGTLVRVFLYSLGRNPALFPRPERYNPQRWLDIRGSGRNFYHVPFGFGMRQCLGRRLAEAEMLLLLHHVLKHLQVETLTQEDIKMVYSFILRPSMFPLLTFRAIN
In short: as §1

[3] = tested on: rats with experimental heart failure; conditions: cited from earlier work

SMILES | EC50 (human CYP11B2) | EC50 (human CYP11B1) | also measured
CC(=O)S[C@@H]1CC2=CC(=O)CC[C@]2(C)[C@H]2CC[C@@]3(C)[C@@H](CC[C@@]34CCC(=O)O4)[C@H]12 [spironolactone] | – | – | renal effects (albuminuria, azotemia, renovascular hypertrophy, glomerular injury, PAI-1 and osteopontin mRNA, tubulointerstitial fibrosis) [1]: prevented; aldosterone ([1]; at 4 and 8 weeks of treatment): increased; angiotensin II and salt-stimulated PAI-1 mRNA expression in the aorta and the heart [1]: enhanced; cardiac and aortic medial hypertrophy [1]: attenuated
N#Cc1ccc([C@H]2CCc3cncn32)c(F)c1 [LCI699] | – | – | blood pressure [2]: mildly decreased; circulating aldosterone levels [2]: significantly lower; hypokalemia [2]: corrected
CC(C)n1cncc1C(=O)c1cccc(C#N)c1 [Example 57, 3-(3-Isopropyl-3H-imidazole-4-carbonyl)-benzonitrile] | 26 nM | 203 nM | –
Cn1cncc1C(=O)c1ccc(Cl)c(F)c1 [Example 9, (4-Chloro-3-fluoro-phenyl)-(3-methyl-3H-imidazol-4-yl)-methanone] | 7.7 nM | 187 nM | –
N#Cc1ccc(C2CCCc3cncn32)cc1 (stereo not drawn) [FAD286] | – | – | plasma aldosterone ([1]; 4 weeks of treatment): reduced; renal effects (albuminuria, azotemia, renovascular hypertrophy, glomerular injury, PAI-1 and osteopontin mRNA, tubulointerstitial fibrosis) [1]: prevented; angiotensin II and salt-stimulated PAI-1 mRNA expression in the aorta and the heart [1]: not; cardiac and aortic medial hypertrophy [1]: attenuated; blood pressure and cardiovascular function and structure [3]: improved; kidney function and morphology [3]: improve
Cn1cncc1C(=O)c1ccc(C#N)cc1F [Example 8, 3-Fluoro-4-(3-methyl-3H-imidazole-4-carbonyl)-benzonitrile] | 98.6 nM | 2500 nM | –
CC(C)n1cncc1C(=O)c1ccc(SC(F)(F)F)cc1 [Example 75, (3-Isopropyl-3H-imidazol-4-yl)-(4-trifluoromethylsulfanyl-phenyl)-methanone] | 89.9 nM | 760 nM | –
CCSc1ccc(C(=O)c2cncn2CC)cc1 [Example 69, (3-Ethyl-3H-imidazol-4-yl)-(4-ethylsulfanyl-phenyl)-methanone] | 84.4 nM | 329 nM | –

Continued by falling EC50 (human CYP11B2), values first:

EC50 (human CYP11B2) | EC50 (human CYP11B1) | SMILES | also measured
6.3 nM | 78.2 nM | CCC(C)n1cncc1C(=O)c1cccc(C#N)c1 (stereo not drawn) [Example 37, 3-(3-sec-Butyl-3H-imidazole-4-carbonyl)-benzonitrile] | –
5.3 nM | 253 nM | CCSc1ccc(C(=O)c2cncn2C(C)C)cc1 [Example 71, (4-Ethylsulfanyl-phenyl)-(3-isopropyl-3H-imidazol-4-yl)-methanone] | –
4.9 nM | 167 nM | Cn1cncc1C(=O)c1ccc(Cl)c(Cl)c1 [Example 3, (3,4-Dichloro-phenyl)-(3-methyl-3H-imidazol-4-yl)-methanone] | –
4.4 nM | 65.9 nM | CCn1cncc1C(=O)c1ccc(Cl)cc1 [Example 7, (4-Chloro-phenyl)-(3-ethyl-3H-imidazol-4-yl)-methanone] | –
3.9 nM | 3.9 nM | CC(C)n1cncc1C(=O)c1ccc(F)c(Cl)c1 [Example 38, (3-Chloro-4-fluoro-phenyl)-(3-isopropyl-3H-imidazol-4-yl)-methanone] | –
2.7 nM | 33 nM | CCn1cncc1C(=O)c1ccc(Cl)c(F)c1 [Example 34, (4-Chloro-3-fluoro-phenyl)-(3-ethyl-3H-imidazol-4-yl)-methanone] | –
2.1 nM | 5.6 nM | CC(C)n1cncc1C(=O)c1ccc(Cl)cc1 [Example 13, (4-Chloro-phenyl)-(3-isopropyl-3H-imidazol-4-yl)-methanone] | –
0.2 nM | 3.3 nM | CCC(CC)n1cncc1C(=O)c1ccc(C#N)cc1 [Example 82, 4-[3-(1-Ethyl-propyl)-3H-imidazole-4-carbonyl]-benzonitrile] | –
